{"source": "paper PMC3310271", "about": "(Journal of agricultural and food chemistry, 2011)", "key": {"[1]": {"system": "colon cancer cells (HCT116)", "conditions": "HCT116, among phenolic acids formed in TIM-2; cited from earlier work"}, "[2]": {"experiment": "TIM-1 gastrointestinal model bioaccessibility of maqui berry anthocyanins", "assay_type": "in vitro ADME", "conditions": "for Total Bioaccessible Anthocyanin Amount: maqui berry extract in TIM-1, jejunal + ileal absorption over 4 h"}, "[3]": {"conditions": "first 4 h; cited from earlier work"}, "diabetic C57b1/6J mice": {"system": "diabetic C57b1/6J mice", "conditions": "gavage; cited from earlier work"}, "[4]": {"conditions": "maqui berry extract in TIM-1, over 4 h"}}, "note": "Like-named read-outs stand apart in the source and are kept apart here.", "data": [{"compound": "O=C(O)Cc1ccc(O)c(O)c1", "note": "[3,4-dihydroxyphenylacetic acid]", "values": [{"measurement": "Antiproliferative activity", "setting": "[1]", "value": "antiproliferative activity"}]}, {"compound": "OC[C@H]1O[C@@H](Oc2cc3c(O)cc(O)cc3[o+]c2-c2ccc(O)c(O)c2)[C@H](O)[C@@H](O)[C@@H]1O", "note": "[Cyanidin-3-glucoside]", "values": [{"measurement": "Total Bioaccessibility as % of intake", "setting": "[2]", "value": "4.28 +/− 0.67 % of intake"}, {"measurement": "Recovery in ileostomy patients", "setting": "[3]", "value": 1.5, "unit": "%"}]}, {"compound": "OC[C@H]1O[C@@H](Oc2cc3c(O[C@@H]4O[C@H](CO)[C@@H](O)[C@H](O)[C@H]4O)cc(O)cc3[o+]c2-c2cc(O)c(O)c(O)c2)[C@H](O)[C@@H](O)[C@@H]1O", "note": "[Delphinidin-3,5-diglucoside]", "values": [{"measurement": "Total Bioaccessible Anthocyanin Amount", "setting": "[2]", "value": "1.17 ± 0.57", "unit": "mg"}, {"measurement": "Recovery in Ileal Efflux as a % of Intake", "setting": "[2]; [4]", "value": "0.77 +/− 0.77 % of intake"}, {"measurement": "Total Bioaccessibility as % of intake", "setting": "[2]; [4]", "value": "3.61 +/− 1.74 % of intake"}, {"measurement": "Total Bioaccessibility as % of intake", "setting": "[2]; maqui berry extract in TIM-1, over 4 h, listed as delphinidin-3,5-diglucoside", "value": "3.6 % of intake"}]}, {"compound": "OC[C@H]1O[C@@H](Oc2cc3c(O)cc(O)cc3[o+]c2-c2cc(O)c(O)c(O)c2)[C@H](O)[C@@H](O)[C@@H]1O", "note": "[Delphinidin-3-glucoside]", "values": [{"measurement": "Total Bioaccessible Anthocyanin Amount", "setting": "[2]", "value": "3.02 ± 1.83", "unit": "mg"}, {"measurement": "Recovery in Ileal Efflux as a % of Intake", "setting": "[2]; [4]", "value": "0.87 +/− 0.78 % of intake"}, {"measurement": "Total Bioaccessibility as % of intake", "setting": "[2]; [4]", "value": "3.15 +/− 1.91 % of intake"}]}, {"compound": "OC[C@H]1O[C@@H](Oc2cc(O)cc3[o+]c(-c4cc(O)c(O)c(O)c4)c(O[C@@H]4O[C@H](CO)[C@@H](O)[C@H](O)[C@H]4O[C@@H]4OC[C@@H](O)[C@H](O)[C@H]4O)cc23)[C@H](O)[C@@H](O)[C@@H]1O", "note": "[Delphinidin-3-sambubioside-5-glucoside]", "values": [{"measurement": "Recovery in Ileal Efflux as a % of Intake", "setting": "[2]; [4]", "value": "0.32+/− 0.32 % of intake"}]}, {"compound": "OC[C@H]1O[C@@H](Oc2cc3c(O)cc(O)cc3[o+]c2-c2cc(O)c(O)c(O)c2)[C@H](O[C@@H]2OC[C@@H](O)[C@H](O)[C@H]2O)[C@@H](O)[C@@H]1O", "note": "[Delphinidin-3-sambubioside]", "values": [{"measurement": "Total Bioaccessibility as % of intake", "setting": "[2]", "value": "1.23 +/− 0.49 % of intake"}, {"measurement": "Recovery in Ileal Efflux as a % of Intake", "setting": "[2]; [4]", "value": "0.26 +/− 0.24 % of intake"}]}, {"compound": "COc1cc(-c2[o+]c3cc(O)cc(O)c3cc2O[C@@H]2O[C@H](CO)[C@@H](O)[C@H](O)[C@H]2O)cc(OC)c1O", "note": "[malvidin-3-O-glucoside]", "values": [{"measurement": "Effect on blood glucose levels", "setting": "diabetic C57b1/6J mice", "value": "significantly hypoglycemic"}]}, {"compound": "Cyanidin-3-sambubioside-5-glucoside + cyanidin3,5-diglucoside", "values": [{"measurement": "Total Bioaccessibility as % of intake", "setting": "[2]", "value": "17.84 +/− 2.61 % of intake"}]}]}
